Measurements reported in the supplement of paper PMC13380429.

Tests used:
Details in all cases: 72 h
[1] = tested on: Calu-3; experiment: drug sensitivity score (DSS) for viability; higher = more toxic; extreme values may be limits of the assay
[2] = tested on: Vero E6; experiment: as above
[3] = tested on: Caco-2; experiment: as above
[4] = tested on: HepG2; experiment: as above
[5] = tested on: U2OS; experiment: as above
[6] = tested on: Calu-3; experiment: cell viability relative to DMSO; higher = less toxic
[7] = tested on: Vero E6; experiment: as above
[8] = tested on: Caco-2; experiment: as above
[9] = tested on: HepG2; experiment: as above
[10] = tested on: U2OS; experiment: as above
[11] = tested on: Calu-3; experiment: relative viability EC50 (midpoint between 100% and the lowest measured viability); higher = less toxic
[12] = tested on: Caco-2; experiment: as above
[13] = tested on: HepG2; experiment: as above
[14] = tested on: U2OS; experiment: as above

| Compound | drug sensitivity score [1] | drug sensitivity score [2] | drug sensitivity score [3] | drug sensitivity score [4] | drug sensitivity score [5] | cell viability ([6]; 1 nM) | cell viability ([6]; 10 nM) | cell viability ([6]; 100 nM) | cell viability ([6]; 1000 nM) | cell viability ([6]; 10000 nM) | cell viability ([7]; 1 nM) | cell viability ([7]; 10 nM) | cell viability ([7]; 100 nM) | cell viability ([7]; 1000 nM) | cell viability ([7]; 10000 nM) | cell viability ([8]; 1 nM) | cell viability ([8]; 10 nM) | cell viability ([8]; 100 nM) | cell viability ([8]; 1000 nM) | cell viability ([8]; 10000 nM) | cell viability ([9]; 1 nM) | cell viability ([9]; 10 nM) | cell viability ([9]; 100 nM) | cell viability ([9]; 1000 nM) | cell viability ([9]; 10000 nM) | cell viability ([10]; 1 nM) | cell viability ([10]; 10 nM) | cell viability ([10]; 100 nM) | cell viability ([10]; 1000 nM) | cell viability ([10]; 10000 nM) | relative viability EC50 [11] | relative viability EC50 [12] | relative viability EC50 [13] | relative viability EC50 [14] |
| --- | --- | --- | --- | --- | --- | --- | --- | --- | --- | --- | --- | --- | --- | --- | --- | --- | --- | --- | --- | --- | --- | --- | --- | --- | --- | --- | --- | --- | --- | --- | --- | --- | --- | --- |
| CCc1ccc(C2=CC(C)(C)Sc3ccc(C#Cc4ccc(C(=O)O)cc4)cc32)cc1 | 0 | 6.1 | 0.6 | 2.9 | 0 | 90.9% | 113% | 95.5% | 94.6% | 95.2% | 98.5% | 89.8% | 81.2% | 74.9% | 80.6% | 100% | 103% | 97.7% | 100% | 79.4% | 94.7% | 89.7% | 83.7% | 80.6% | 90.1% | 101% | 102% | 96.6% | 104% | 93.2% | > 10 µM | > 10 µM | > 10 µM | > 10 µM |
| CN(C)CCCn1cc(C2=C(c3c[nH]c4ccccc34)C(=O)NC2=O)c2ccccc21 | 1.1 | 2 | 0 | 4.5 | 1.2 | 105% | 94.2% | 92% | 107% | 68.6% | 101% | 95.2% | 98.3% | 96.3% | 68.8% | 91% | 90.5% | 94.1% | 98% | 89.3% | 94.7% | 96.2% | 102% | 95.2% | 31% | 98.8% | 103% | 96.5% | 101% | 70.8% |  | > 10 µM | 2.6 µM |  |
| Cc1c(N2C(=O)[C@@H]3[C@H](O)CCN3C2=O)ccc(C#N)c1Cl | 0 |  | 0 | 0 | 0 | 106% | 101% | 97.4% | 109% | 105% |  |  |  |  |  | 95.4% | 100% | 89.1% | 93.1% | 90.3% | 97.7% | 95.4% | 94% | 93.8% | 97.1% | 94.8% | 99.8% | 98.6% | 94.4% | 97.1% | > 10 µM | > 10 µM | > 10 µM | > 10 µM |
| COc1cc(N)c(Cl)cc1C(=O)N[C@@H]1CCN(CCCOc2ccc(F)cc2)C[C@@H]1OC (racemic) [cisapride] | 0 |  | 0 | 0 | 0 | 99.6% | 101% | 84% | 107% | 110% |  |  |  |  |  | 99.8% | 103% | 100% | 98.9% | 90.3% | 99.7% | 101% | 96% | 104% | 102% | 97.4% | 101% | 93.8% | 98.3% | 93.5% | > 10 µM | > 10 µM | > 10 µM | > 10 µM |
| O=C(OCCO)c1ccccc1O [2-hydroxyethyl-salicylate] | 0 |  | 0 | 0 | 0 | 97.5% | 95.5% | 108% | 108% | 94.8% |  |  |  |  |  | 114% | 108% | 100% | 104% | 93.3% | 103% | 99.8% | 108% | 100% | 89% | 99.2% | 102% | 98.6% | 104% | 97.6% | > 10 µM | > 10 µM | > 10 µM | > 10 µM |
| CCC(O)(CC(N)=O)c1ccccc1 (configuration not stated) [3-hydroxy-3-phenylpentanamide] | 0 |  | 0 | 0 | 0 | 98.2% | 106% | 89.4% | 103% | 108% |  |  |  |  |  | 96.1% | 106% | 102% | 100% | 95.8% | 95.9% | 93% | 107% | 100% | 98.1% | 95% | 99% | 98.3% | 104% | 99% | > 10 µM | > 10 µM | > 10 µM | > 10 µM |
| CCOc1nc2c(N)ncnc2n1CC [ANR-94] | 0 |  | 0 | 0 | 0 | 105% | 95.1% | 96.5% | 95.9% | 102% |  |  |  |  |  | 102% | 98.3% | 92.1% | 90.9% | 95.1% | 102% | 98.3% | 97.3% | 96.9% | 93.2% | 104% | 96.2% | 101% | 101% | 105% | > 10 µM | > 10 µM | > 10 µM | > 10 µM |
| Cc1ccc(NC(=O)c2cccc(C(C)(C)C#N)c2)cc1Nc1ccc2ncn(C)c(=O)c2c1 [AZ-628] |  | 4.8 | 3.7 | 18.1 | 4.8 |  |  |  |  |  | 101% | 102% | 102% | 84.2% | 52.4% | 95.8% | 102% | 98.2% | 81.9% | 63.8% | 97.5% | 102% | 69.9% | 22% | 16.6% | 98.7% | 98.6% | 93.2% | 89.7% | 43.3% |  |  | 0.148 µM | 1.81 µM |
